Measured values taken from a melting point compilation (Tetko et al.; mined from patent text by program, amines drawn as free bases though some values may be those of a salt).

Row | melting point [°C] | SMILES
1 | 115 to 117 | Clc1ccc(N2C3CCC2CN(Cc2ccccc2)C3)cc1
2 | 143 | CCOc1cc(=O)n(-c2ccc([N+](=O)[O-])cc2)[nH]1
3 | 51 to 51.5 | CCCCCCCCCC(=O)COS(=O)(=O)c1ccc(Cl)cc1
4 | 151 to 153 | O=C(CC(O)(Cn1cncn1)c1ccc(Cl)cc1Cl)N1CC1 (stereo not given)
5 | 133 to 134 | COCOc1cc(C(=O)O)n(Cc2ccc(C(F)(F)F)cc2Cl)n1
6 | 240 to 243 | N#CCCCCn1c(=O)sc2c(=O)[nH]c(N)nc21
7 | 245 to 250 | O=c1cc(Sc2ccccc2)c(-c2nc[nH]n2)nn1-c1ccccc1
8 | 221 to 223 | Cc1c(-c2cncc(CO)c2)ccc2c(=O)c(C(=O)O)cn(C3CC3)c12
9 | 42 to 43 | CCNC(=O)OCCOc1ccc(Oc2ccc(F)cc2)cc1Cl
10 | 190 to 195 | O=C(O)c1ccc(SC(C(=O)O)c2cccc(C(F)(F)F)c2)cn1 (stereo not given)
11 | 211 | Cc1c(OCc2nnn[nH]2)cc2c(c1Cl)C(=O)C1(CCCC1)C2=O
12 | 256 to 258 | CC1(C)CCC(C)(C)c2cc(C#Cc3ccc(/C=C/C(=O)O)cc3)ccc21
13 | 164 | COc1cc(NC(NC2CCC2)=C(C#N)S(=O)(=O)c2ccc(Cl)cc2)cc(OC)c1
14 | 216 to 219 | COC(=O)c1cn2c(n1)COc1ccc(NC(C)=O)cc1-2
15 | 157 to 158 | CC(C)(C)c1ccc(CCNc2ncnc3ccncc23)cc1
16 | 200 to 202 | COCCN(C)Cc1c(-c2ccc(N)cc2)sc2c1c(=O)n(-c1ccc3c(c1)OCO3)c(=O)n2Cc1c(F)cccc1F
17 | 106 | Cc1ccc(S(=O)(=O)N2CCC[C@H](CC#N)c3ccccc32)cc1
18 | 142 to 144 | COc1nc2ccccc2nc1NC(=O)N1CCN(c2ccccc2F)CC1
19 | 207 to 209 | CN1C(=O)CC[C@]2(C)c3ccc(Sc4nc5c(Cl)cccc5s4)cc3CC[C@@H]12
20 | 176 to 177 | O=C(c1cc2ccc(Br)cc2o1)c1cc2ccc(Br)cc2o1
21 | 323 to 326 | CC(C)c1ccc(-n2nc(O)c3[nH]c4cc(Cl)ccc4c(=O)c3c2=O)cc1
22 | 215 to 216 | CN(C)CCCn1c(=O)c2c(N)c3c(=O)c4ccccc4c(=O)c3c(N)c2c1=O
23 | 178 to 180 | COc1cc(C(F)(F)F)sc1CN1C(=O)C2(COc3cc4c(cc32)OCO4)c2ccccc21 (stereo not given)
24 | 211 to 212 | CCOC(=O)c1cn(-c2ccc(F)cc2F)c2c(Cl)c(F)c(F)cc2c1=O

Row | melting point [°C] | SMILES
25 | 95 to 97 | CCCCCCCCCCCCCCCCCCOc1cc2ccccc2c(N=Nc2ccc(OC)cc2)c1O
26 | 132 to 134 | O=C(O)[C@H](Cc1ccccc1)NS(=O)(=O)c1ccc(Cl)cc1
27 | 149 to 151 | CC(=O)OC[C@H]1O[C@@H]2[C@@H](Sc3ccc(Cl)cc3N2CCCN(C)C)[C@@H](OC(C)=O)[C@@H]1OC(C)=O
28 | 54 to 58 | Cc1c(SCCCN2CCN(Cc3ccc(Cl)s3)CC2)ccnc1CS(=O)c1nc2ccccc2[nH]1 (stereo not given)
29 | 87.7 | C#CCOc1cc(Oc2cc(Cl)ccc2Cl)ncn1
30 | 148 to 149 | CCOC(=O)N1CCC(=C2c3ccc(Cl)cc3OCc3cc(Br)cnc32)CC1
31 | 71 to 72.5 | Cc1nnnn1CCCC(=O)O
32 | 109 | COC(=O)C1=C(C(=O)N(C(=O)CCl)c2cc(OC)c(Cl)cc2F)CCCC1
33 | 203 to 204 | COC(=O)/C(=C/C=C/c1cc2cc(Cl)c(Cl)cc2[nH]1)OC
34 | 337 to 338 | Nc1ccc2c(c1)C(=O)c1cc(N)ccc1C2=O
35 | 121 to 123 | CNC(=S)n1nc(Oc2c(Cl)cc(C(F)(F)F)cc2Cl)cc1C
36 | 220 | Cc1nnc2c(Cl)nc([N+](=O)[O-])c(N)n12
37 | 147 to 150 | CC(C)(C)NS(=O)(=O)c1ccccc1-c1ccccn1
38 | 146 to 148 | CC(C)CC(SCC1CCCCC1)c1c(O)cc(-c2ccccc2)oc1=O (stereo not given)
39 | 165 to 166 | CCN(CC)c1ccc(C2OC(=O)c3cc(N(C)C)ccc32)cc1 (stereo not given)
40 | 255 to 257 | Cc1cc2c3c(cccc3c1Br)C(=O)N(O)C2=O
41 | 173 to 176 | CCOCc1nnc(C)n1-c1ccc(Cl)cc1C(=O)O
42 | 72.5 to 73.5 | O=C(O)C(O)(C(F)F)C(F)F
43 | 199 to 201 | Cc1oc(-c2ccccc2)nc1CCOc1ccc(C[C@H](NC(=O)C=Cc2ccco2)C(=O)O)cc1
44 | 122 to 123 | O=[N+]([O-])c1cc(Br)nc(Br)c1
45 | 90 to 91 | COc1ccc(CC=[N+]([O-])C(C)(C)C)cc1
46 | 205 to 206 | CCOC(=O)/C=C/c1cn(-c2ccc(C(F)(F)F)cc2)nc1OCc1ccc(OCc2nc(-c3ccccc3)oc2C)c(OC)c1
47 | 65 to 67 | COC(=O)Cc1c(OC)ncnc1Oc1cccc(C(C)=O)c1
48 | 246 to 248 | CC(C)n1nc(-c2sc(NC(=O)c3ccc(CN(C)C)cc3)nc2-c2ccccc2)ccc1=O

Row | melting point [°C] | SMILES
49 | 188 to 191 | O=C(c1ccccc1)N1CCc2nnc(NN=C3CCCCC3)cc2C1
50 | 191 to 192 | O=C(O)CN1C(=O)C(Cl)=C(Cl)C1=O
51 | 99 to 100 | CCCNCC(O)COc1ccccc1CCCc1cccc2[nH]ccc12 (stereo not given)
52 | 166 to 167 | CC1OC(=O)N(c2nc(-c3ccc(C#N)cc3)cs2)C1(C)C (stereo not given)
53 | 145 | CCOC(=O)C1=C(N)NC(N)=C(C(=O)OCC)C1c1ccnc2ccccc12
54 | 225 to 227 | Oc1ccc2c(c1)COc1c-2cc2ccc(O)cc2c1-c1ccccc1
55 | 211 to 213 | O=C(O)c1ccc(OCc2ccccc2)c(Cl)c1
56 | 138 to 140 | Cc1cccc(NC(=O)N2CCN(CC(=O)N3CC=C(c4cccc(C(F)(F)F)c4)n4ncc(C#N)c43)CC2)c1
57 | 209 to 212 | O=C(Nc1ccccc1)C1=CNCCC1
58 | 100 to 102 | Cc1cc(-c2nnn(C)n2)cc(C)c1OCCCCc1nccn1C
59 | 190 to 193 | CCOC(=O)C(=O)Nc1cc(C)c(C)cc1C(N)=O
60 | 103 to 104 | CC(C)(Oc1ccc(OCCCCc2cc(-c3ccc(C(F)(F)F)cc3)no2)cc1)C(=O)O
61 | 133 to 134 | c1ccc(-c2cc(N3CCNCC3)nc3ccccc23)cc1
62 | 197 to 198 | CC(C)(C)CCN(CCC(C)(C)C)[C@@H](CC(=O)O)C(=O)O
63 | > 270 | Cc1oc(C)c2c(=O)c3c(=O)ccc(=O)c=3c(=O)c12
64 | 70 to 71 | CCCCN(Cc1ccccc1)C(=O)Nc1ccc(C)cc1C
65 | 158 to 159 | CC(C)(C)[Si](C)(C)OCC1(CO[Si](C)(C)C(C)(C)C)COc2cc(I)cc3c(=O)c(C(=O)NCc4ccc(Cl)cc4)cn1c23
66 | 155 to 157 | CC(C)(C)OC(=O)Nc1ccc(N2CCNCC2)cc1
67 | 50 | OCc1cnc(Oc2ccccc2)s1
68 | 90 | CCN(CC)CCNc1cc(Cl)cc(NCCN(CC)CC)c1[N+](=O)[O-]
69 | 122 | Cc1nccn1-c1cccc(C2=CC(=O)OC(C)(C)O2)c1
70 | 105 to 110 | CCCCC[C@H]1CC[C@H](c2ccc(NC(=O)OC)cc2)CC1
71 | 205 to 207 | O=C(Nc1ccc(C(=O)N2CCC=Cc3ccccc32)cc1)c1ccccc1Cl
72 | 193 to 195 | COc1cc2c(c(OC)c1OC)CCN(c1nc(N)c3cc(OC)c(OC)c(OC)c3n1)C2

Row | melting point [°C] | SMILES
73 | 113 | CCN(CC)CCOc1ccc(C(O)(CC)c2ccccc2)cc1 (stereo not given)
74 | 88 | CCOC(=O)c1c(NC(C)=O)cccc1C(C)=O
75 | 116 to 119 | CCC(O)CN1N=C(c2ccc(Cl)cc2)C2CCC2C1=O (stereo not given)
76 | 104 to 107 | CCCCOCCOc1ccc(-c2ccc3c(c2)C=C(C(=O)Nc2ccc(SCc4nncn4CCC)c(C)c2)CCN3CC(C)C)cc1
77 | 149 | CC(C(=O)Cl)c1ccc(C(=O)c2cccs2)cc1 (stereo not given)
78 | 184 to 187 | CCCN(CCC)S(=O)(=O)c1cc(-c2csc(=Nc3cccc(C)c3C)n2C)ccc1Cl
79 | 137 | CN(C)c1nc2c(N)cc(Br)cc2n1C
80 | 146 to 147 | Cn1cc(-c2noc(C(N)CN3CCCCC3)n2)c2ccccc21 (stereo not given)
81 | 214 to 216 | COc1ccc(-c2c(Cl)c(CN3C(=O)CCC3=O)nc3sc4c(c23)CC(C)(C)C(=O)C4(C)C)cc1
82 | 206 to 208 | Cn1c2ccc(Cl)cc2c2c(CC(=O)O)nn(-c3ccccc3)c(=O)c21
83 | 252 | CC(=O)NNc1ccnc2c(NC(=O)c3c(Cl)cccc3Cl)cccc12
84 | 177 to 179 | CSc1nnc(-c2ccc3ccccc3c2)n1C
85 | 188 to 189 | CCCCCOCCOc1ccc(-c2ccc3c(c2)C=C(C(=O)Nc2ccc(CN(C)C4CCOCC4)cc2)CCS3(=O)=O)cc1
86 | 220 to 222 | Cn1ccc(C(=O)c2ccc(O)c(Cl)c2Cl)n1
87 | 293 to 295 | CS(=O)(=O)Nc1ccc(C(=O)Nc2cn3cc(Cl)ccc3n2)cc1
88 | 61 to 62.5 | COCCNCc1cccc(OCCCNc2nc(N)nn2C)c1
89 | 202 to 204 | CS(=O)(=O)Cc1cnc2ccccc2c1Cl
90 | 112 to 113 | CCCCC1CCC2NC(=O)C(=O)C2C1 (stereo not given)
91 | 131 to 134 | CN1C(=O)CC[C@]2(C)c3ccc(-c4cccc(Cl)c4Cl)cc3CC[C@@H]12
92 | 159 to 160 | CCOC(=O)c1cc2ccc(OC)cc2n1CCNC(C)=O
93 | 158 to 160 | CC(C)(CO)Oc1ccc(-c2ccc(N3CCCCC3)cc2)cc1
94 | 91 to 92 | CCOC(=O)c1c2ccc(Cl)cc2c(-c2ccccc2)n1CCCOS(C)(=O)=O
95 | 283 | CCCN(CCC)c1ccc2c(c1)O/C(=C1/Oc3cc(N(CCC)CCC)ccc3C1=O)C2=O

Row | SMILES | melting point [°C]
96 | CC1(C)CCC(C)(C)c2cc(-c3cc4ccc(C(=O)O)cc4[nH]3)ccc21 | 215
97 | CCCCn1cc(C(=O)C(=O)O)c2cc(-c3cccc(Cl)c3)ccc21 | 108 to 109
98 | C=C(c1cn(-c2c(Cl)cc(C(F)(F)F)cc2Cl)nc1C#N)C(F)(F)C(F)(F)C(F)(F)F | 109 to 110
99 | Cc1cc(F)ccc1-n1c(CF)nc2ccc([N+](=O)[O-])cc2c1=O | 171 to 173
100 | CCC1CC(=O)C2Oc3c(OC)ccc4c3C23CCN(C#N)C(C4)C13 (stereo not given) | 212 to 217
